Reference: patent US20050182242A1, “Global analysis of protein activities using proteome chips” (priority 2001, published 2005)

Test system: phospholipids (phosphatidylinositols vs phosphatidylcholine)
Test: Proteome chip lipid-binding screen, overall analysis of six liposomes (PI/PC specificity)
Conditions: phospholipid liposome probes
Excerpt: FIGS. 4A-4D. Analysis of the phosphatidylinositol-binding proteins. To determine the phosphatidylinositol (“PI”)-binding specificity of 150 positive proteins, their binding signals were normalized against the corresponding binding signals of phosphatidylcholine (“PC”). Based on the ratios (“PI/PC”), the proteins were grouped into four categories: (A) 30 strong and specific, (B) 43 strong and nonspecific, (C) 19 weak and specific, and (D) 58 weak and nonspecific phosphatidylinositol-binding proteins. The intensity represents the PI/PC signal ratio as shown by the scale in the figure. The column, labeled “10^n” to the right of the PI/PC binding ratios indicates the maximum binding signal intensity (open boxes) and its confidence interval (solid horizontal lines); the numbers indicate the log of the values. Boxes in the three columns to the right of the confidence interval column indicate membrane-associated proteins (“Membrane”), kinases (“Kinase”), and uncharacterized ORFs (“Unknown”), respectively.
To identify PI-binding proteins in yeast, liposomes were used as probes because the liposome provides the most relevant physiological condition to assay the interactors. Six types of liposomes were used. […] The biotinylated lipid serves as a label that can be detected by Cy3-streptavidin (21). […]

## RIM15: yeast protein kinase, regulator of glucose metabolism, GST-HisX6 fusion
  identified as lipid-binding interactor: identified
